Read-outs that look alike come from different tables or passages of the source. Ends that are not written are not given here.
Key:
[1] = tested on: Angiotensin converting enzyme (ACE); assay: In vitro ACE inhibitory activity assay with FAPGG substrate; assay type: biochemical; settings: captopril at 0.1 μM, 37 °C, 30 min, absorbance 340 nm
Protocol: The peptides predicted with potential antihypertensive capacity were synthesized by GenScript. The ACE inhibitory capacity of hydrolysates and selected peptides were measured as previously described with minor modifications; 400 μL of samples (hydrolysates, synthesized peptides dissolved in the HEPES-NaCl buffer at a concentration of 1.25 mg/mL, 125 μM separately) were mixed with 100 μL of ACE (0.2 U/mL). After incubation of the mixture at 37 °C for 10 min, 500 μL of FAPGG was added and the absorbance value at 340 nm was detected instantly by a FlexStation 3 and recorded as A0 min. After being kept at 37 °C for 30 min, the absorbance value at 340 nm was detected again and recorded: ACE inhibitory rate%=∆Acontrol−∆Asample/∆Acontrol×100% where A0 min is the initial absorbance at 340 nm; A30 min is the absorbance at 340 nm after keeping at 37 °C for 30 min, and ΔA is the reduction in the absorbance: A0 min–A30 min.

[2] = tested on: pepsin; assay: In vitro gastrointestinal digestion simulation, pepsin step, MS analysis; assay type: in vitro ADME; settings: 1.0 mg/mL peptide, pepsin 1% E/S w/w, pH 2.0, 37 °C, 2 h; Q-TOF MS read-out
Protocol: (§1) In vitro gastrointestinal digestion simulation was performed according to the method described by Fan et al. with minor modifications. Two peptides (CP2, CP3) were dissolved in ultrapure water at 1.0 mg/mL, respectively. The solutions were adjusted to pH 2.0 with […]. Then, pepsin (1% E/S, w/w) was added to peptide solutions and the mixtures were incubated at 37 °C for 2 h. Half of the two digests were terminated in digestion by increasing the temperature to 90 °C. After the other half were adjusted to pH 7.5 with […], pancreatin (1% E/S, w/w) was added and the systems were digested at 37 °C for 2 h. The reactions were then stopped by boiling for 10 min. Subsequently, solvents were centrifuged at 10,000 rpm for 10 min. The supernatants were lyophilized to collect and analyzed using Agilent 6545 series Q-TOF mass spectrometer (Agilent, Waldbronn, Germany). The ACE inhibitory activity of the digested peptide solutions was determined under the same conditions.

[3] = tested on: pepsin-pancreatin; assay: In vitro gastrointestinal digestion simulation, pepsin then pancreatin, MS analysis; assay type: in vitro ADME; settings: pepsin pH 2.0, 37 °C, 2 h then pancreatin 1% E/S w/w, pH 7.5, 37 °C, Q-TOF MS read-out
Protocol: as §1

[4] = tested on: ACE; settings: cited from earlier work

Q: Which “ACE inhibition (%)” value [1] does the source give for C[C@H](CS)C(=O)N1CCC[C@H]1C(=O)O [Captopril, captopril] here?
A: 97.5%

Q: Which “stability against pepsin digestion” value [2] does the source give for IIPNEVY [CP2] here?
A: well resistant in gastric digestion

Q: What about the “stability against successive pepsin and pancreatin digestion” value [3] of the same molecule?
A: new peptide sequences were detected

Q: With ITPPVMLPP [CP3] as the molecule, how does the “stability against pepsin digestion” value [2] read?
A: Only a small amount of CP3 was degraded

Q: And the “stability against successive pepsin and pancreatin digestion” value [3]?
A: Great changes in the MS analysis

Q: With QAGLSPVR as the molecule, how does the ACE inhibition pattern ([4]; from tilapia skin gelatin) read?
A: noncompetitive

Q: With QLDL as the molecule, how does the ACE inhibition pattern ([4]; from the mycelia of Ganoderma Lucidum) read?
A: noncompetitive

Q: Which ACE inhibition pattern ([4]; from rice bran protein) does the source give for VFDGVLRPGQ here?
A: noncompetitive

Q: For VGLPPNSR, which ACE inhibition pattern ([4]; from tilapia skin gelatin) is on record?
A: noncompetitive

From article PMC10529643, “Discovery of ACE Inhibitory Peptides Derived from Green Coffee Using In Silico and In Vitro Methods” (Foods, 2023)
